# Results published in article PMC2967639 (Drug and alcohol dependence, 2010).
# What was measured:
# [1] = system: LPS-induced paw edema; conditions: ref Naidu et al., under review; cited from earlier work
# [2] = system: male ICR mice; test: mouse tetrad assay; assay type: in vivo
# [3] = blood and brain tissue concentrations of THC and CBC by GC/MS; assay type: in vivo, mouse
# [4] = system: LPS-induced paw edema; test: LPS-induced paw edema model; assay type: in vivo, mouse; conditions: for LPS-induced paw edema (change in paw thickness of LPS-injected paw): i.p. 1 h before, 6 and 23 h after LPS, dose-response, measured 24 h, Figure 4A; for paw thickness of the LPS-injected paw, post hoc vs vehicle: 10, 30 and 100 mg/kg CBC, 10 and 30 mg/kg THC; for paw thickness of the saline-injected (contralateral) paw: data not shown; for effect of antagonist given alone on LPS paw edema: 3 mg/kg i.p. 30 min before each vehicle injection
# [5] = target: CB1 receptor; conditions: ref Booker et al., 2009; cited from earlier work
# [6] = system: wild type mice; conditions: i.v., ref Smith et al., 1994; cited from earlier work
# [7] = ref Hunt et al., 1980; Widman et al., 1974; cited from earlier work
compound,measurement,setting,value
NC(=O)c1cccc(-c2cccc(OC(=O)NC3CCCCC3)c2)c1 [URB597],effect on LPS induced paw edema,[1],ameliorated LPS induced paw edema
"CCCCCc1cc(O)c2c(c1)OC(C)(CCC=C(C)C)C=C2 (centres unmarked) [CBC, cannabichromene]",potency in the tetrad relative to THC,[2]; i.v.,substantially less potent than THC
same,effect of CBC on THC levels in brain,[3]; 30 or 100 mg/kg CBC i.v. with THC 0.3 mg/kg i.v.,significantly elevated
same,CBC levels in blood with increasing doses of CBC,"[3]; CBC 3-100 mg/kg i.v., with or without THC 0.3 mg/kg, 30 min, Figure 3C",significant increases
same,CBC levels in brain with increasing doses of CBC,"[3]; CBC 3-100 mg/kg i.v., with or without THC 0.3 mg/kg, 30 min, Figure 3D",significant increases
same,LPS-induced paw edema (change in paw thickness of LPS-injected paw),[4],dose-related decreases
same,"paw thickness of the LPS-injected paw, post hoc vs vehicle",[4]; i.p.,significant decreases
same,paw thickness of the saline-injected (contralateral) paw,[4]; i.p.,neither drug affected the paw thickness
same,Ki,[5],> 10 µM
C[C@@H]1C[C@H]2[C@@H]3CCC4=CC(=O)C=C[C@]4(C)[C@@]3(F)[C@@H](O)C[C@]2(C)[C@@]1(O)C(=O)CO [dexamethasone],effect on LPS induced paw edema,[1],ameliorated LPS induced paw edema
"Cc1c(C(=O)c2cccc3ccccc23)c2cccc3c2n1[C@H](CN1CCOCC1)CO3 [WIN55,212-2]",effect on LPS induced paw edema,[1],ameliorated LPS induced paw edema
Cc1c(C(=O)NN2CCCCC2)nn(-c2ccc(Cl)cc2Cl)c1-c1ccc(Cl)cc1 [rimonabant],blockade of the tetrad effects of CBC,[2]; rimonabant 3 mg/kg 10 min before CBC 100 mg/kg i.v.,failed to block the pharmacological effects of CBC
same,main effect of rimonabant on the four tetrad measures,"[2]; rimonabant 3 mg/kg, 10 min before vehicle or CBC 100 mg/kg",no significant main effects
same,effect of antagonist given alone on LPS paw edema,[4],Neither rimonabant nor SR144528 given alone affected LPS paw edema
same,antagonism of the anti-edematous effects of THC,"[4]; antagonist 3 mg/kg 30 min before each THC 10 mg/kg i.p. injection, Figure 4B",but not rimonabant
CCCCC/C=C\C/C=C\C/C=C\C/C=C\CCCC(=O)NCCO [anandamide],"fold less potent in producing antinociception than hypomotility, catalepsy and hypothermia",[6],3 – 4 fold
"CCCCCc1cc(O)c2c(c1)OC(C)(C)[C@@H]1CCC(C)=C[C@@H]21 [THC, Δ^9-tetrahydrocannabinol]",activity in the tetrad at threshold dose,[2]; THC 0.3 mg/kg i.v.,inactive
same,effect of THC on CBC blood and brain levels,[3]; THC 0.3 mg/kg i.v. 10 min after CBC 3-100 mg/kg i.v.,no effects
same,LPS-induced paw edema (change in paw thickness of LPS-injected paw),[4],dose-related decreases
same,"paw thickness of the LPS-injected paw, post hoc vs vehicle",[4]; i.p.,significant decreases
same,paw thickness of the saline-injected (contralateral) paw,[4]; i.p.,neither drug affected the paw thickness
same,"ED50 (95% confidence intervals), LPS-induced paw edema","[4]; individual dose-response curves, i.p.",4.0 (2.7 to 5.9) mg/kg
same,THC in blood bound to plasma,[7],About 90%
same,THC in blood bound to red blood cells,[7],10%
same,plasma THC bound to lipoproteins,[7],95 – 99%
SR144528,effect of antagonist given alone on LPS paw edema,[4],Neither rimonabant nor SR144528 given alone affected LPS paw edema
